Results as given in patent publication US11859203B2, “Cell culture methods” (UCB BIOPHARMA SRL, priority 2017, dated 2024).

Legend:
Type in all cases: cell-based, Chinese Hamster
[1] = test system: CHO-DG44 cells from cell line 2; assay: Fed-batch 2 L bioreactor culture with cysteine/cystine derivatives, cell line 2 (Example 3); conditions: 50% replacement; cell line 2, 2 L bioreactor
Method: (§1) The ability of cysteine/cystine derivatives to reduce color and acidic species of a recombinant protein preparation produced in cell culture was evaluated in a bioreactor for two cell lines. This model is more representative of the large-scale production than the shake flask due to the geometry and additional control. CHO-DG44 cells from cell line 1 and 2 were inoculated in 1300 mL of basal media at a seeding density of 0.35×10^6 cells/mL in 2 L stirred bioreactor (Sartorius). The cells were cultivated during 14 days in fed-batch mode. The cell cultures were agitated at 280 rpm and the DO was maintained at 40%. The cell culture was maintained at pH 7.0±0.2 with an automatic CO2 sparging regulation. Cells were cultured in a fed-batch mode with bolus addition of Feed every day of culture. The basal media contained 0.04 mmol/L of cysteine+0.38 mmol/L of cystine. The Feed contained 153.3 mmol/L of cystine. Over the entire 14-day production phase, the total volume of Feed added corresponded to 5.7% (w/w) of the culture start volume for cell line 1 and to 3.1% (w/w) of the culture start volume for cell line 2.
(§2) The cysteine present in the Feed was replaced by different cysteine- and cystine derivatives at different percentages as presented in Table 2. A condition with only 50% of cysteine was added to test whether the improvements observed were due to the cysteine derivative or to the reduction of cysteine only. Osmolality was daily monitored using an osmometer from Advanced instrument. Off line pH, dissolved O2 and dissolved CO2 were daily monitored using a Nova Biomedical Phox (Nova biomedical). Metabolites concentrations were daily determined using a CedexBioHT system (Roche). Viable cell concentration and cell viability were measured daily using a ViCell automated cell counter (Beckman Coulter). The cell culture fluid was collected daily by centrifuging 1 mL of cell culture fluid for determination of antibody titer by HPLC prot A (waters) or using protein-L Octet measurement (Pall). At the end of the 14 days of culture, the cell culture fluid was harvested by centrifugation. The supernatant was then purified using a protein-A or L affinity chromatography (GE). The protein-A or L eluates were used for the molecular weight determination using UPLC size exclusion (Waters) and for the charge variants determination using isocapillary focusing (PROTEINSIMPLE iCE3). Another part of the protein-A eluates (only from cell line 1) was concentrated to 40 mg/mL using Amicon centricon centrifugal filter devices (Millipore). Color intensity of the concentrated antibody composition was measured in the concentrated protein A eluates using a spectrophotometer by transmission (UltrascanPro) and compared to the CIE (commission internationale de l'éclairage) scale. The numerical results were normalized to the concentration of 40 mg/mL.

[2] = test system: CHO-DG44 cells from cell line 1; assay: Fed-batch 2 L bioreactor culture with cysteine/cystine derivatives, cell line 1 (Example 3); conditions: 50% replacement, cell line 1, 2 L bioreactor; for decrease of the b value level (color intensity) compared to control: 40 mg/mL
Method: as §1, §2

[3] = test system: CHO-DG44 cells from cell line 1; assay: Fed-batch Ambr15 mini bioreactor culture, different replacement levels, cell line 1 (Example 5); conditions: for cell growth: 90% of cysteine/cystine in Feed replaced, Ambr15
Method: We tested different concentrations of cysteine/cystine derivatives on the improvement on the APG level of a recombinant protein preparation produced in cell culture cultivated in mini bioreactors. CHO-DG44 cells from cell line 1 were inoculated in 12 mL basal media at a seeding density of 0.35×10^6 cells/mL in Ambr15 bioreactors (Sartorius). The cells were cultivated in fed-batch mode during 14 days. The DO was maintained at 40% and the pH was maintained 7.0±0.2 with an automatic CO2 sparging regulation. Viable cell concentration and cell viability were measured daily using a ViCell automated cell counter (Beckman Coulter). Cells were cultured in a fed-batch mode with a daily bolus addition of Feed. The basal media contained 0.04 mmol/L cysteine+0.38 mmol/L cystine. The Feed contained 153.3 mmol/L of cystine. Over the entire 14-day production phase, the total volume of added Feed corresponded to 4.7% (v/v) of the culture start volume.
Different percentages of cysteine present in the Feed was replaced by different cysteine- and cystine analogs. Table 4 provides an overview of different percentages tested and their equivalence in molar ratio relative to cysteine or cystine. E.g. for N-Acetyl-L-cysteine 10% means that 10% molar amount of cysteine equivalent has been replaced by 10% molar amount of N-Acetyl-L-cysteine; for N,N′-Diacetyl-L-cystine, 10% means that 10 molar amount of cystine equivalent has been replaced with 10% molar amount of N,N′-Diacetyl-L-cystine. At the end of the 14 days of culture, the cell culture fluid was harvested by centrifugation. The supernatant was then purified using a protein-A affinity chromatography (GE). The protein-A eluates were used for the charge variants determination using isocapillary focusing (PROTEINSIMPLE iCE3).

cell line 1 = assay: Reproducibility in 2 L bioreactor, cell line 1, average of data sets 1 and 2 (Example 4); conditions: for cell growth (VCC) compared to control: from day 9, 2 L bioreactor, data sets 1 and 2
Method: as §1, §2
The reproducibility of the results was evaluated in bioreactor with cell line 1. The experiments of Example 3 were repeated with an additional control and a bioreactor with 50% S-sulfocysteine 50% Cysteine Feed. The data from the two experiments were analyzed to confirm the effect previously observed with cysteine/cystine derivatives.

[4] = test system: CHO-DG44 cells producing a full-length antibody, mAb1; assay: Fed-batch shake flask culture with cysteine in Feed replaced by cysteine/cystine derivatives (Example 1)
Method: The ability of cysteine/cystine derivatives to reduce color and acidic species of an antibody preparation produced recombinantly by host cells grown in cell culture was evaluated. For this experiment, a scale-down model in shake flask was used. CHO-DG44 cells producing a full-length antibody, mAb1, were inoculated in 100 mL of basal media at a seeding density of 0.35×10^6 cells/mL mAb1 comprises a light chain having the sequence as defined in SEQ ID NO: 9 and a heavy chain having the sequence as defined in SEQ ID NO: 10.
The shake flask vessels were 250 mL shake flasks (corning) disposed in an agitated incubator (Infors) protected from light. The cells were cultivated for 14 days at 36.8° C. with 80% humidity. The cell cultures were agitated at 140 rpm at the beginning of the process. The agitation was increased during the process progressively to reach 250 rpm to maintain a DO % at 40% in the shake flask, as is it done in a 2 L bioreactor process. The cell culture was maintained at pH 7.0±0.2 by decreasing the CO2 in the incubator from 5% before the process to 2% during the process. Cells were cultured in a fed-batch mode with bolus addition of Feed every day of culture. The basal media contained 0.04 mmol/L of cysteine+0.38 mmol/L of cystine. The Feed contained 153.3 mmol/L of cystine. Over the entire 14-day production phase, the total volume of Feed added corresponded to 4.47% (v/v) of the culture start volume.
The cysteine present in the Feed was replaced by different cysteine and cystine derivatives at different percentages as presented in Table 1. Osmolality was daily monitored using an osmometer from Advanced Instruments. Off line pH, dissolved O2 and dissolved CO2 were daily monitored using a model BioProfile pHOx® blood gas analyser (Nova Biomedical Corporation, Waltham, Mass.). Metabolites concentrations were daily determined using a CedexBioHT system (Roche). Viable cell concentration and cell viability were measured daily using a ViCell automated cell counter (Beckman Coulter). The cell culture fluid was collected daily by centrifuging 1 mL of cell culture fluid for determination of antibody titer using protein A HPLC (Waters). At the end of the 14 days of culture, the cell culture fluid was harvested by centrifugation. The supernatant was then purified using a protein-A affinity chromatography (MabSelect Sure, GE). […] The relative percentage of main, acidic (APG for Acidic Peak Group) and basic (BPG for Basic Peak Group) isoforms of the purified mAb was determined by Imaged Capillary Electrophoresis (PROTEINSIMPLE iCE3). […]
Color intensity of the concentrated antibody composition was measured in the concentrated protein A eluates using a spectrophotometer by transmission (UltrascanPro) and compared to the CIE (commission internationale de l'éclairage) scale. […]

[5] = 50% replacement, compared to 50% cysteine feed
[6] = 50% replacement, data sets 1 and 2 average

Compound | decrease of acidic species level compared to control [1] [%] | main species level [1] | decrease of acidic species level compared to control [2] [%] | decrease of antibody titer compared to control [2] | main species level [2] | decrease of the b value level (color intensity) compared to control [2] [%] | acidic species level with respect to the control ([3]; 10-90% replacement) | cell growth [3] | specific productivity (cell line 1; [5]) | average decrease of b value level (color intensity) compared to control (cell line 1; [6]) [%] | decrease in antibody titer compared to the controls average (cell line 1; [6]) | titer loss due to cysteine reduction in feed compensated (cell line 1; compared to 50% cysteine feed) [%] | decrease of b*value (color intensity) of the concentrated protein-A eluate compared to control ([4]; 50% replacement, day 14, eluate normalized to 40 mg/mL) [%] | decrease on acidic variants level compared to control ([4]; 50% replacement, day 14, iCE3) [%] | cell growth (VCC) compared to control (cell line 1; 50% replacement) | maximum viable cell concentration ([4]; 50% of cysteine in Feed replaced) | cell growth (viable cell concentration) compared to control ([4]; 100% of cysteine in Feed replaced by derivative, shake flask, 14 days) | main charge species level with respect to the control ([3]; 10-90% replacement) | maximum reduction of acidic species level with respect to the control ([3]; with the increase of the percentage of replacement (10-90%)) [%] | main species level (cell line 1; [6])
COC(=O)[C@H](CSSC[C@H](NC(C)=O)C(=O)OC)NC(C)=O [N,N′-diacetyl-L-cystine dimethylester, N,N′-diacetyl-L-cystine-dimethylester] | 13 | increase of main species | 15 | less than 5% | increase of main species | 25 | decrease of the acidic species level | Inhibition of the growth | increase of the specific productivity | 30 | less than 5% | 5 | 21.2 | 24.8 |  |  |  |  |  | 
N[C@@H](CSS(=O)(=O)O)C(=O)O [S-sulfocysteine, S-Sulfocysteine, reference compound] |  |  |  |  |  |  |  |  | not to a specific impact | 5 | 25% |  |  |  | higher cell death than the control | 2×10^6 cells/mL | cells rapidly died on day 7 |  |  | 
CC(=O)N[C@@H](CSSC[C@H](NC(C)=O)C(=O)O)C(=O)O [N,N′-diacetyl-L-cystine, N,N′-Diacetyl-L-cystine] | 8 | increase of main species | 5 |  | increase of main species | 2.5 |  | Inhibition of the growth | did not impact the productivity | 14 | 10% |  |  |  | higher VCCs than the control conditions |  |  | positive difference with respect to the control | 27.5 | increase of main species
